Results taken from the NIST ThermoML archive (doi:10.1021/acs.jced.9b00536).

Experiment: wn = mass fraction of the nth substance listed
Details: 100 kPa, Liquid, Vibrating tube method

[Na+].[OH-] [sodium hydroxide] + O
mass density [kg/m3]
Details | 303.15 K | 313.15 K | 323.15 K | 333.15 K | 343.15 K | 353.15 K
w1 = 0.2 | 1213.8 | 1208 | 1202.1 | 1196.1 | 1190 | 1184.4
w1 = 0.21 | 1223.5 | 1219 | 1213 | 1206.8 | 1200.5 | 1194
w1 = 0.22 | 1236.2 | 1230.3 | 1224.3 | 1218.1 | 1212 | 1206.4
w1 = 0.23 | 1246.1 | 1240.2 | 1234.1 | 1227.9 | 1221.8 | 1216.2
w1 = 0.24 | 1256.6 | 1250.6 | 1244.4 | 1238.3 | 1232.2 | 1226.7
w1 = 0.25 | 1268 | 1262 | 1256 | 1249.5 | 1243 | 1236.5
w1 = 0.26 | 1279.4 | 1273.3 | 1267.1 | 1260.8 | 1254.6 | 1249
w1 = 0.27 | 1289.2 | 1283 | 1276.7 | 1270.3 | 1264.1 | 1258.3
w1 = 0.28 | 1299 | 1293.7 | 1287.4 | 1281 | 1274.7 | 1269.1
w1 = 0.29 | 1311 | 1304.5 | 1298.5 | 1292 | 1285.5 | 1278.5
w1 = 0.3 | 1321.7 | 1315.4 | 1308.9 | 1302.4 | 1295.9 | 1289.9
w1 = 0.31 | 1330.9 | 1324.5 | 1318 | 1311.4 | 1304.9 | 1298.7
w1 = 0.32 | 1343.4 | 1337 | 1330.4 | 1323.8 | 1317.2 | 1311.1
w1 = 0.33 | 1353.5 | 1347 | 1340.4 | 1333.7 | 1327.1 | 1321
w1 = 0.34 | 1364.3 | 1357.8 | 1351.1 | 1344.4 | 1337.8 | 1331.6
w1 = 0.35 | 1372.5 | 1365.9 | 1359.2 | 1352.5 | 1345.9 | 1339.8
w1 = 0.36 | 1381.8 | 1375.5 | 1369 | 1362.9 | 1356.8 | 1349.8
w1 = 0.37 | 1393.6 | 1386.8 | 1380 | 1373.2 | 1366.5 | 1360.2
w1 = 0.38 | 1403.3 | 1396.5 | 1389.6 | 1382.8 | 1376.1 | 1369.9
w1 = 0.39 | 1413.5 | 1406.5 | 1400 | 1393 | 1386 | 1379.5
w1 = 0.4 | 1423.3 | 1416.3 | 1409.3 | 1402.4 | 1395.6 | 1389.6
w1 = 0.41 | 1432.9 | 1425.9 | 1418.9 | 1412 | 1405.1 | 1398.7
w1 = 0.42 | 1443.2 | 1436.2 | 1429.2 | 1422.2 | 1415.4 | 1409
w1 = 0.43 | 1452.9 | 1445.8 | 1438.8 | 1431.8 | 1425 | 1418.6
w1 = 0.44 | 1460.9 | 1453.8 | 1446.7 | 1439.7 | 1432.8 | 1426.3
w1 = 0.45 | 1470.7 | 1463.5 | 1456.5 | 1449.5 | 1442.6 | 1436.2
w1 = 0.46 | 1479.6 | 1472.7 | 1465.9 | 1459 | 1451.5 | 1445.2
w1 = 0.47 | 1489.7 | 1482.5 | 1475.3 | 1468.3 | 1461.4 | 1454.8
w1 = 0.48 | 1499.9 | 1492.6 | 1485.4 | 1478.3 | 1471.4 | 1465
w1 = 0.49 | 1509.4 | 1502.1 | 1494.9 | 1487.9 | 1481 | 1474.6
w1 = 0.5 | 1518.4 | 1511.1 | 1503.9 | 1496.9 | 1490 | 1483.6
